Where a name gives a salt, the structure may show the parent alone.

This is an account of results in patent US12459941B2, “Tricyclic IRAK inhibitors” (Rigel Pharmaceuticals, Inc., priority 2022, dated 2025).

In assay [1] the test system is TNFa. As to the kind of experiment: TNFa ELISA, PBMC, Resiquimod (R848) stimulated. Type of assay: cell-based. The note with it: 10 pt curve. (An ELISA detects its analyte on a solid surface through an enzyme-linked reagent.)
The target in assay [2] is IRAK1 (Homo sapiens, UniProt P51617). As to the kind of experiment: IRAK1 ADP-Glo Kinase assay. The format is biochemical. The note with it: 8 pt curve.
In assay [3] the test system is IL23-p19. As to the kind of experiment: LPS induced IL23p19 in THP-1 cells (IFNγ primed), sandwich ELISA. The format is cell-based. The note with it: Homo sapiens; THP-1 cells primed with IFNγ, LPS 1 μg/mL, 10 pt curve; read-out: IL23-p19 ELISA, THP1-IFNy, LPS, 10 pt. An excerpt: LPS Induced IL23p19 in THP-1 Cells (with IFNγ Primed) Assay
THP-1 Cells (ATCC, Cat #TIB-202), Dimethyl Sulfoxide (DMSO) (Sigma-Aldrich, Cat #D2650), RPMI 1640 (Cellgro, Cat #10-040-CM), Fetal Bovine Serum (Sigma, Cat #F4135), Albumin From Bovine Serum (BSA) (Sigma-Aldrich, Cat #A7906), LPS (Serotype K-235, Sigma, Product Number L 2143), IFNγ (Peprotech, Cat #300-02), Capture antibody: Human IL-23p19 ELISA (e-Bioscience, Cat. #14-7238-85), Detection antibody: Primary Mouse Biotinylated anti-human IL-12(p40/p70) (e-Bioscience, Cat. #13-7129-85), Secondary HRP-conjugated Streptavidin (R&D Systems, Cat #DY998), 1×PBST Washing Buffer (PBS-Tween tablet) (VWR International, Cat #80058-558), ELISA Blocking Buffer (PBS with 1% BSA), ELISA Dilution Buffer (PBS with 1% BSA), 384 Well Flat-Bottom, MaxiSorp Black Immuno Plates (Thermo Scientific, Cat #12-565-346), 384 Well Flat-Bottom, White Tissue Culture Plates (Thermo Scientific, Cat #12-565-343), Super Signal ELISA Pico Chemiluminescent Substrate (Thermo Scientific, Cat #37070), Cell Titer Glo reagent (Promega, Cat #G7573), Positive control, IKK2VI inhibitor (Calbiochem, Cat #401483), AquaMax 4000 plate washer (Molecular Devices), Luminometer, Wallac Victor2 1420 Multilabel Counter.
On day 1, 50K/well THP-1 cells were seeded and primed with IFNγ (50 ng/mL) in 384-well plates for about 18 hours in RPMI media with 10% FBS. On day 2, the compound was serially diluted in DMSO from 5 mM in 3-fold dilutions, and then diluted 1:125 in RPMI media with 10% FBS. 50 μL/well 2× compound was added to 50 μL/well THP-1 cells (with IFNγ primed) in duplicate in 384 well tissue culture plates. The cells were pre-incubated with compound for 1 hour at 37° C., 5% CO2 before addition of 10 μL/well 11×LPS to give a final concentration of 1 μg/mL LPS. Day 3, after stimulation for 18 hours at 37° C., 5% CO2, the assay plate was centrifuged and 70 μL/well supernatant was harvested. IL-23p19 protein in 70 μL/well of supernatant was measured by sandwich ELISA, and 25 μl/well Cell Titer Glo reagent was added to the remaining cells to measure compound toxicity.
Human IL-23p19 Sandwich ELISA:
Maxisorp immuno ELISA plates were pre-coated with 25 μL/well of anti-IL-23p19 capture antibody (2.5 ug/mL) in PBS overnight at room temperature. After washing with 1×PBST, the plates were blocked using 100 μL/well of 1% BSA in PBS for 2 hours at room temperature. The plates were washed three times with 1×PBST and 70 μL/well supernatant were added. The plates were incubated at room temperature for 2 hours with shaking and washed three times with 1×PBST. 25 μL/well of biotin labeled anti-IL-12(p40/p70) detection antibody (100 ng/mL) in PBS with 1% BSA was added and the plates were incubated at room temperature for 2 hours with shaking. After washing three times with 1×PBST, 25 μL/well of streptavidin-HRP (1:200) in PBS with 1% BSA was added and the plates were incubated at room temperature for 20 minutes with shaking. The plates were washed three times with 1×PBST and 25 μL/well of Super Signal ELISA Pico Chemiluminescent Substrate were added. The plates were read with a luminometer, and the chemiluminescence values were entered into Athena (Rigel) for curve fitting, EC50 calculation, and database storage.

In assay [4] the target is T1, IRAK4 (Homo sapiens, UniProt Q9NWZ3).
T1 construct: purchased Signalchem I12-10G-20
T1 sequence (Q9NWZ3 1-460): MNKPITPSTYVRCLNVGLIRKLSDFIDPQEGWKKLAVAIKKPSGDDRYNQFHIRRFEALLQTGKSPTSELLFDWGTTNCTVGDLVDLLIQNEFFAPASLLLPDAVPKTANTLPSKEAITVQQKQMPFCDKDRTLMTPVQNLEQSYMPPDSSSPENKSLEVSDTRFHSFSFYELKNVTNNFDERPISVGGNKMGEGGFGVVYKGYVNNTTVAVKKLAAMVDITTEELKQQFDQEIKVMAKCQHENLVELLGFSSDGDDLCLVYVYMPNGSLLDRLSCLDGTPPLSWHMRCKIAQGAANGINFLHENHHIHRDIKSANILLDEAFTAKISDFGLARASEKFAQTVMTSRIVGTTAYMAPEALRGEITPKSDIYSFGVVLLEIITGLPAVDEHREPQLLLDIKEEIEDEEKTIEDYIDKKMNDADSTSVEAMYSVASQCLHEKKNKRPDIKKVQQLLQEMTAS
As to the kind of experiment: IRAK4 ADP-Glo assay. Type of assay: biochemical. The note with it: 8 pt curve; read-out: IRAK4 ADP-Glo Kinase, 8 pt. Here is the method:
IRAK4 Kinase Enzyme (Signalchem, I12-10G-20); 0.1M DTT (Signalchem, D86-09B); MBP Substrate (Signalchem, M42-51N); ADP Glo (Promega, V9101); 1M MgCl2 (Teknova, M03304); 1M Tris-HCl pH7.4 (Teknova, T1074); BSA (Sigma (A3059); Distilled H2O
Wallac Victor2 1420 Multilabel Counter
The ADP-Glo™ reagents were thawed at ambient temperature. The Kinase Detection Reagent was prepared by mixing kinase detection buffer with the lyophilized kinase detection substrate, and set aside.
A stock volume of 5× Reaction Kinase Buffer was made with a final concentration of 100 mM MgCl2, 200 mM Tris-HCl, and 0.5 mg/ml of BSA, in distilled H2O with a final pH7.4. A 2× working stock volume of Reaction Kinase Buffer was made containing a final concentration of […].
The components of IRAK4 Enzyme were thawed on ice. Diluted IRAK4 in 1× Kinase Reaction Buffer (diluted from 2× buffer) was prepared at […]. A […] working stock ATP Assay Solution was prepared in 1× Kinase Reaction Buffer (diluted from 2× buffer).
The compound was diluted in DMSO from 250 µM in 4-fold series dilutions for 8 points. Then diluted 1:5 in 2× Reaction Buffer in a 96 well plate. 1.01 was transferred to a 384 well plate in duplicate. […] 1 μl of 1 mg/ml stock solution of MBP substrate was added NOTE: MBP can be combined with ATP mix with equal volume and then added at 2 d/well. Final reaction volume was 5 μl.
The plate was centrifuged and the reaction mixture was incubated at room temperature for 60 minutes or at 30° C. for 30 minutes.
The reaction was terminated and the remaining ATP was depleted by adding 5 μl of ADP-Glo™ Reagent. The 384-well plate was centrifuged and then the reaction mixture was incubated for another 40 minutes at ambient temperature.
10 μl of the Kinase Detection Reagent was added. The plate was centrifuged and then the reaction mixture was incubated for another 30 minutes at ambient temperature.
The 384-well reaction plate was read using the WALLAC plate reader (Luminescence 0.1s).
In general terms: ADP-Glo first removes unused ATP, then detects ADP through luciferase.

For assay [5], the system named is TNFa. As to the kind of experiment: TNFa ELISA, dendritic cells, Gardiquimod stimulated. The note with it: Homo sapiens, Dendritic cell, 10 pt curve. The format is cell-based.
The test system of assay [6] is TNFa. As to the kind of experiment: TNFa ELISA, THP1-IFNy, LTA stimulated. The note with it: 10 pt curve. The format is cell-based.

IRAK1, sequence (P51617 whole entry): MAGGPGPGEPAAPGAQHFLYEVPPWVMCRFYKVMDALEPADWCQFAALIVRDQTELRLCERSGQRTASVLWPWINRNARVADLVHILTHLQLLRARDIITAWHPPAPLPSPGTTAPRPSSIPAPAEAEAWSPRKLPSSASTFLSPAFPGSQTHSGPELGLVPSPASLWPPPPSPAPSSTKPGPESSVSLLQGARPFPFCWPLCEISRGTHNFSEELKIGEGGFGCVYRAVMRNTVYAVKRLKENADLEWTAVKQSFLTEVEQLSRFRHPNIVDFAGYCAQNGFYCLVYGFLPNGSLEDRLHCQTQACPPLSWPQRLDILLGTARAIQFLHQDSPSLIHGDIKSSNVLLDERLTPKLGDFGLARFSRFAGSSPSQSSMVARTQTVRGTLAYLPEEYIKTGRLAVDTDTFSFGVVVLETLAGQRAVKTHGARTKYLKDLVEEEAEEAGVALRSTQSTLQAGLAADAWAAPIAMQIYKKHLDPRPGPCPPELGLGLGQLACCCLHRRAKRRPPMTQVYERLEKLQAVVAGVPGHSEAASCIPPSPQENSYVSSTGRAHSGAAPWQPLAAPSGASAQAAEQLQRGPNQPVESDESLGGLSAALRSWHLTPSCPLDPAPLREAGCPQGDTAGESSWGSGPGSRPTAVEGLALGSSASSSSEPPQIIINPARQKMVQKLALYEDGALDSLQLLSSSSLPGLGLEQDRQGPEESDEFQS

For `O=C1CC[C@@H](COc2nccc3cc4c(=O)[nH]cc(C5CC5)c4cc23)N1` [I-14, (S)-4-cyclopropyl-6-((5-oxopyrrolidin-2-yl)methoxy)pyrido[3,4-g]isoquinolin-1(2H)-one], the EC50 is 187 nM in assay [1], 956 nM in assay [3] and 196 nM in assay [5]. In addition, the IC50 in assay [2] was 4770 nM; in assay [4], 4.9 nM.

With `NCC#Cc1c[nH]c(=O)c2cc3ccnc(OC[C@@H]4CCC(=O)N4)c3cc12` [I-29, (S)-4-(3-aminoprop-1-yn-1-yl)-6-((5-oxopyrrolidin-2-yl)methoxy)pyrido[3,4-g]isoquinolin-1(2H)-one], the EC50 in assay [1] amounted to 1460 nM; in assay [3] it was 14000 nM; in assay [5], 9090 nM. The results for the IC50 in assay [2] and in assay [4] were 34600 nM and 1430 nM, respectively.

For the compound `O=C1CC[C@@H](COc2nccc3cc4c(=O)[nH]cc(C#CCO)c4cc23)N1` [I-21, (S)-4-(3-hydroxyprop-1-yn-1-yl)-6-((5-oxopyrrolidin-2-yl)methoxy)pyrido[3,4-g]isoquinolin-1(2H)-one], the values for the EC50 in assay [1], in assay [3] and in assay [5] were 422 nM, 778 nM and 1500 nM, respectively. For the same compound, the IC50 in assay [2] was found to be 777 nM; in assay [4], 5.8 nM.

Turning to `Cc1c[nH]c(=O)c2cc3ccnc(OC[C@@H]4CCC(=O)N4)c3cc12` [I-2, (S)-4-methyl-6-((5-oxopyrrolidin-2-yl)methoxy)pyrido[3,4-g]isoquinolin-1(2H)-one formic acid salt], the EC50 in assay [1] (formic acid salt) stood at 135 nM; in assay [6], 274 nM. In addition, the figures for the IC50 in assay [2] and in assay [4] were 3840 nM and 6.7 nM, respectively.

Regarding `O=C1CC[C@@H](COc2nccc3cc4c(=O)[nH]cc(CC(F)F)c4cc23)N1` [I-17, (S)-4-(2,2-difluoroethyl)-6-((5-oxopyrrolidin-2-yl)methoxy)pyrido[3,4-g]isoquinolin-1(2H)-one], the EC50 was 360 nM in assay [1], 16100 nM in assay [3] and 607 nM in assay [5]. In addition, the IC50 amounted to 10600 nM in assay [2] and 21.4 nM in assay [4].
